What was measured:
Format in all cases: functional
[1] = tested on: SK-OV-3; assay: Cytotoxicity against Homo sapiens (human) SKOV3 cells after 48 hr by sulforhodamine B assay; conditions: SK-OV-3, 48 h
[2] = tested on: T47D; assay: Cytotoxicity against Homo sapiens (human) T47D cells after 48 hr by sulforhodamine B assay
[3] = tested on: OVCAR-8; assay: Cytotoxicity against Homo sapiens (human) OVCAR8 cells after 48 hr by sulforhodamine B assay; conditions: OVCAR-8, 48 h
[4] = tested on: TK-10; assay: Cytotoxicity against Homo sapiens (human) TK10 cells after 48 hr by sulforhodamine B assay; conditions: TK-10, 48 h; for CC50: read-out: LC50 (the source's name)
[5] = tested on: SF-268; assay: Cytotoxicity against Homo sapiens (human) SF268 cells after 48 hr by sulforhodamine B assay; conditions: SF-268, 48 h
[6] = tested on: 786-0; assay: Cytotoxicity against Homo sapiens (human) 786-0 cells after 48 hr by sulforhodamine B assay; conditions: 786-0, 48 h
[7] = tested on: RPMI-8226; assay: Cytotoxicity against Homo sapiens (human) RPMI8226 cells after 48 hr by sulforhodamine B assay; conditions: RPMI-8226, 48 h
[8] = tested on: SW-620; assay: Cytotoxicity against Homo sapiens (human) SW620 cells after 48 hr by sulforhodamine B assay; conditions: SW-620, 48 h; for CC50: read-out: LC50 (the source's name)
[9] = tested on: NCI-H460; assay: Cytotoxicity against Homo sapiens (human) NCI-H460 cells assessed as cell growth at 10^-4 M after 48 hr by Alamar blue assay; conditions: NCI-H460, 48 h, read-out: Activity
[10] = tested on: BT-549; assay: Cytotoxicity against Homo sapiens (human) BT549 cells after 48 hr by sulforhodamine B assay; conditions: BT-549, 48 h
[11] = tested on: NCI-H460; assay: Cytotoxicity against Homo sapiens (human) NCI-H460 cells after 48 hr by sulforhodamine B assay; conditions: NCI-H460, 48 h; for CC50: read-out: LC50 (the source's name)
[12] = tested on: MCF7; assay: Cytotoxicity against Homo sapiens (human) MCF7 cells after 48 hr by sulforhodamine B assay; conditions: MCF7, 48 h
[13] = tested on: SF-295; assay: Cytotoxicity against Homo sapiens (human) SF295 cells after 48 hr by sulforhodamine B assay; conditions: SF-295, 48 h; for CC50: read-out: LC50 (the source's name)
[14] = tested on: SNB-19; assay: Cytotoxicity against Homo sapiens (human) SNB19 cells after 48 hr by sulforhodamine B assay; conditions: SNB-19, 48 h
[15] = tested on: HOP-92; assay: Cytotoxicity against Homo sapiens (human) HOP92 cells after 48 hr by sulforhodamine B assay; conditions: HOP-92, 48 h
[16] = tested on: OVCAR-5; assay: Cytotoxicity against Homo sapiens (human) OVCAR5 cells after 48 hr by sulforhodamine B assay; conditions: OVCAR-5, 48 h; for CC50: read-out: LC50 (the source's name)
[17] = tested on: MCF7; assay: Cytotoxicity against Homo sapiens (human) MCF7 cells assessed as cell growth at 10^-4 M after 48 hr by Alamar blue assay; conditions: MCF7, 48 h, read-out: Activity
[18] = tested on: Hs-578T; assay: Cytotoxicity against Homo sapiens (human) Hs 578T cells after 48 hr by sulforhodamine B assay
[19] = tested on: A498; assay: Cytotoxicity against Homo sapiens (human) A498 cells after 48 hr by sulforhodamine B assay; conditions: A498, 48 h
[20] = tested on: M14; assay: Cytotoxicity against Homo sapiens (human) M14 cells after 48 hr by sulforhodamine B assay; conditions: M14, 48 h
[21] = tested on: UO-31; assay: Cytotoxicity against Homo sapiens (human) UO31 cells after 48 hr by sulforhodamine B assay; conditions: UO-31, 48 h
[22] = tested on: CCRF-CEM; assay: Cytotoxicity against Homo sapiens (human) CCRF-CEM cells after 48 hr by sulforhodamine B assay
[23] = tested on: SNB-75; assay: Cytotoxicity against Homo sapiens (human) SNB75 cells after 48 hr by sulforhodamine B assay; conditions: SNB-75, 48 h
[24] = tested on: ACHN; assay: Cytotoxicity against Homo sapiens (human) ACHN cells after 48 hr by sulforhodamine B assay
[25] = tested on: LOX IMVI; assay: Cytotoxicity against Homo sapiens (human) LOXIMVI cells after 48 hr by sulforhodamine B assay
[26] = tested on: DU-145; assay: Cytotoxicity against Homo sapiens (human) DU145 cells after 48 hr by sulforhodamine B assay; conditions: DU-145, 48 h
[27] = tested on: SK-MEL-28; assay: Cytotoxicity against Homo sapiens (human) SK-MEL-28 cells after 48 hr by sulforhodamine B assay; conditions: SK-MEL-28, 48 h
[28] = tested on: HCT-15; assay: Cytotoxicity against Homo sapiens (human) HCT15 cells after 48 hr by sulforhodamine B assay; conditions: HCT-15, 48 h
[29] = read-out: LC50 (the source's name)

Compound: ClCc1ccc(Cn2cnc3ncnc(Cl)c32)cc1
- GI50 [1]: 11.2 µM
- LC50 [1]: 47.9 µM
- TGI [1]: 23.4 µM
- GI50 [2]: 1.28 µM
- LC50 [2]: 6.3 µM
- TGI [2]: 2.88 µM
- GI50 [3]: 3.16 µM
- LC50 (concentration killing 50% of cells) [3]: 56.2 µM
- TGI [3]: 11 µM
- GI50 [4]: 1.47 µM
- TGI [4]: 2.95 µM
- CC50 [4]: 5.75 µM
- GI50 [5]: 1.65 µM
- TGI [5]: 3.38 µM
- CC50 [5, 29]: 7.07 µM
- GI50 [6]: 1.69 µM
- LC50 [6]: 5.49 µM
- TGI [6]: 3.01 µM
- GI50 [7]: 1.28 µM
- TGI [7]: 2.69 µM
- CC50 [7, 29]: 5.62 µM
- GI50 [8]: 2.57 µM
- TGI [8]: 7.24 µM
- CC50 [8]: 32.4 µM
- growth at 100 µM [9]: 0%
- GI50 [10]: 3.71 µM
- LC50 (50% lethal concentration) [10]: 56.2 µM
- TGI [10]: 17 µM
- GI50 [11]: 1.77 µM
- TGI [11]: 4.26 µM
- CC50 [11]: 17.4 µM
- GI50 [12]: 1.34 µM
- LC50 (concentration killing 50% of cells) [12]: 6.45 µM
- TGI [12]: 2.95 µM
- GI50 [13]: 2.04 µM
- TGI [13]: 5.01 µM
- CC50 [13]: 17 µM
- GI50 [14]: 1.69 µM
- LC50 [14]: 5.75 µM
- TGI [14]: 3.16 µM
- GI50 [15]: 1.17 µM
- TGI [15]: 2.51 µM
- CC50 [15, 29]: 5.49 µM
- GI50 [16]: 6.3 µM
- TGI [16]: 19.5 µM
- CC50 [16]: 45.7 µM
- growth at 100 µM [17]: 23%
- GI50 [18]: 1.73 µM
- LC50 [18]: > 100 µM
- TGI [18]: 4.26 µM
- GI50 [19]: 1.81 µM
- LC50 (lethal concentration, 50% cell kill) [19]: 6.3 µM
- TGI [19]: 3.38 µM
- GI50 [20]: 2.75 µM
- LC50 [20]: 37.1 µM
- TGI [20]: 13.2 µM
- GI50 [21]: 4.78 µM
- LC50 (concentration causing 50% net cell kill) [21]: > 100 µM
- TGI [21]: 66.1 µM

Compound: ClCc1ccccc1Cn1cnc2c(Cl)nc(Cl)nc21
- GI50 [1]: 1.82 µM
- LC50 [1]: 6.91 µM
- TGI [1]: 3.54 µM
- GI50 [2]: 1.99 µM
- LC50 [2]: > 100 µM
- TGI [2]: 5.49 µM
- GI50 [3]: 1.23 µM
- LC50 (concentration killing 50% of cells) [3]: 6.45 µM
- TGI [3]: 2.81 µM
- GI50 [22]: 0.03 µM
- TGI [22]: 0.09 µM
- CC50 [22, 29]: 0.47 µM
- GI50 [4]: 1.45 µM
- TGI [4]: 2.88 µM
- CC50 [4]: 5.62 µM
- GI50 [5]: 1.77 µM
- TGI [5]: 4.16 µM
- GI50 [6]: 1.86 µM
- LC50 [6]: 6.45 µM
- TGI [6]: 3.47 µM
- GI50 [7]: 0.38 µM
- TGI [7]: 1.54 µM
- GI50 [8]: 0.15 µM
- TGI [8]: 0.35 µM
- CC50 [8]: 0.81 µM
- growth at 100 µM [9]: 0%
- GI50 [10]: 0.45 µM
- LC50 (50% lethal concentration) [10]: 4.16 µM
- TGI [10]: 1.47 µM
- GI50 [23]: 1.54 µM
- TGI [23]: 3.54 µM
- GI50 [24]: 0.47 µM
- TGI [24]: 1.62 µM
- CC50 [24, 29]: 4.16 µM
- GI50 [11]: 3.31 µM
- TGI [11]: 8.71 µM
- CC50 [11]: > 100 µM
- GI50 [12]: 0.81 µM
- LC50 (concentration killing 50% of cells) [12]: > 100 µM
- TGI [12]: 1.82 µM
- GI50 [25]: 0.15 µM
- LC50 [25]: 0.85 µM
- TGI [25]: 0.36 µM
- GI50 [13]: 1.9 µM
- TGI [13]: 3.38 µM
- CC50 [13]: 6.02 µM
- GI50 [26]: 0.13 µM
- LC50 [26]: 6.31 µM
- TGI [26]: 2.95 µM
- GI50 [27]: 1.23 µM
- TGI [27]: 3.31 µM
- GI50 [28]: 0.33 µM
- TGI [28]: 1.2 µM
- CC50 [28, 29]: 4.78 µM
- GI50 [15]: 0.35 µM
- TGI [15]: 0.97 µM
- GI50 [16]: 1.58 µM
- TGI [16]: 2.95 µM
- CC50 [16]: 5.62 µM
- growth at 100 µM [17]: 0%
- GI50 [18]: 1.17 µM
- LC50 [18]: > 100 µM
- TGI [18]: 3.54 µM
- GI50 [19]: 2.4 µM
- LC50 (lethal concentration, 50% cell kill) [19]: 9.55 µM
- TGI [19]: 4.78 µM
- GI50 [20]: 1.38 µM
- LC50 [20]: 5.75 µM
- TGI [20]: 2.81 µM
- GI50 [21]: 0.42 µM
- LC50 (concentration causing 50% net cell kill) [21]: 5.92 µM
- TGI [21]: 1.51 µM

From ChEMBL document CHEMBL3044672, “N9- and N7-(Chloromethyl Phenymethyl)Chloropurine Derivatives from , '-Dichloroxylenes: Synthesis and Anticancer Activity” (2005)
